# Test results: US20080280838A1, “Composition Containing Ginsenoside F1 and Egcg for Preventing Skin Damage” (Amorepacific Corporation, priority 2004, published 2008)
# Columns and labels:
# [1] = tested on: Bcl-2; test: Western-blot analysis of UV-induced down-regulation of Bcl-2 expression in HaCaT cells; format: cell-based, Human; conditions: 60 mJ/cm^2 UVB
# Description: (§1) Human keratinocyte HaCaT cell line was provided by Dr. N. E. Fusenig (Deutsches Krebsforschungszentrum(DKFZ), Heidelberg, Germany) and cultured in DMEM (Dulbecco's modified Eagle's medium, Gibco 1210-0038) supplemented with 10% fetal bovine serum. Cultures were incubated at 37° C., in humidified air with 5% CO2.
# Cell lines cultured in Step 1 were treated with trypsin to give a single-cell suspension and seeded into 6-well microplates at […] per well, then cultured for 24 hours. Subsequently, the culture medium was refreshed with serum-free DMEM and cells were cultured for another 24 hours. The microplates were then treated with 2 μM ginsenoside F1; 10 μM EGCG; a combination of 2 μM ginsenoside F1 and 10 μM EGCG; 5 μM ginsenoside F1; and 50 μM EGCG, respectively. Ginsenoside F1 was dissolved in 100% ethanol at a 1/1000-fold concentration to the medium and EGCG (Sigma) was dissolved in DMSO at a 1/1000-fold concentration to the medium. […]
# 24 hours after UV irradiation, cells treated with each compound or untreated were washed with PBS and harvested by treating with trypsin. […] Supernatants were collected by centrifugation at 15,000×g for 10 minutes at 4° C. and protein concentrations were determined using BIO-Rad Protein Dye Reagent™. […] The bands on the film were scanned using PowerLook 2100 XL (UMAX) and analyzed with ImageMaster 2D Elite software (Amersham Biosciences).
# [2] = tested on: HaCaT cells; test: MTT-reduction assay: antiapoptotic effect against UV-induced apoptosis in HaCaT cells; format: cell-based, Human; conditions: 60 mJ/cm^2 UVB; for UV-caused apoptotic cell population compared with untreated control cells: 24 hours after UV irradiation
# Description: as §1
# Cell lines cultured in Step 1 were treated with trypsin to give a single-cell suspension and seeded into a 6-well microplate at 2×10^5 cells per well, then cultured for 24 hours. Subsequently, the culture medium was refreshed with serum-free DMEM and cells were cultured for another 24 hours. The microplate was then treated with 2 μM ginsenoside F1; 10 μM EGCG; a combination of 2 μM ginsenoside F1 and 10 μM EGCG; 5 μM ginsenoside F1; and 50 μM EGCG in separate wells.
# For reference, ginsenoside F1 was dissolved in 100% ethanol at a 1/1000-fold concentration to the medium and EGCG (Sigma) was dissolved in dimethyl sulfoxide (DMSO) at a 1/1000-fold concentration to the medium, and then added at the required amount to the culture mediums.
# After 24-hour treatment of each test sample, each microplate was washed with phosphate buffered saline (PBS) and exposed to 60 mJ/cm^2 of UVB in the presence of PBS. PBS was then removed and the culture medium was refreshed with a medium containing each compound at the corresponding concentration. As a control, untreated cells were cultured in the same way.
# 24 hours after UV irradiation, to the microplates treated with each compound or untreated was added 3-(4,5-dimethyl thiazol-2-yl)-2,5-diphenyltetrazolium bromide (MTT, Sigma) solution, and then the cells were cultured at 37° C. for 4 hours. DMSO was added and dissolved completely. The optical density (OD) of formazan formed at 540 nm was measured using an ELISA reader (Thermo Max, Molecular Devices Co.). Cell viability in each test group was evaluated as a relative value, considering OD of untreated control cells as 100%.
Structure (SMILES),Bcl-2 expression compared with the untreated control group ([1]; 10 μM EGCG alone),UV-caused apoptotic cell population compared with untreated control cells ([2]; 10 μM EGCG alone),antiapoptotic effect relative to combined treatment (2 μM ginsenoside F1 and 10 μM EGCG) ([2]; 50 μM EGCG alone),Bcl-2 expression compared with the untreated control group ([1]; 2 μM ginsenoside F1 alone),UV-caused apoptotic cell population compared with untreated control cells ([2]; 2 μM ginsenoside F1 alone),antiapoptotic effect relative to combined treatment (2 μM ginsenoside F1 and 10 μM EGCG) ([2]; 5 μM ginsenoside F1 alone)
"O=C(O[C@@H]1Cc2c(O)cc(O)cc2O[C@@H]1c1cc(O)c(O)c(O)c1)c1cc(O)c(O)c(O)c1 [EGCG, (−)epigallocatechin-3-gallate]",no difference,no difference,similar,–,–,–
"CC(C)=CCC[C@](C)(O[C@@H]1O[C@H](CO)[C@@H](O)[C@H](O)[C@H]1O)[C@H]1CC[C@]2(C)[C@@H]1[C@H](O)C[C@@H]1[C@@]3(C)CC[C@H](O)C(C)(C)[C@@H]3[C@@H](O)C[C@]12C [ginsenoside F1, 20-O-β-D-glucopyranosyl-20(S)-protopanaxatriol]",–,–,–,no difference,no difference,similar
